Source: US11026918B2, “Method of preventing or treating a pulmonary disease or condition” (THE BOARD OF TRUSTEES OF THE UNIVERSITY OF ILLINOIS, priority 2014, dated 2021)
“Also recorded” adds a separate entry of the source.

Assays:
[1] = biological target: sphingosine kinase-1/SphK1 (Homo sapiens, UniProt Q9NYA1); details: cited from earlier work
[2] = tested on: bleomycin-challenged C57BL/6J mice; test: Bleomycin-induced pulmonary fibrosis in mice treated with PF-543; assay type: in vivo; details: PF-543 i.p. 5 mg/kg twice per week
Description: In Vivo Studies. In this analysis, 8 week-old, wild-type, C57BL/6J mice were treated with 1.5 U/kg bleomycin.

human lung fibroblasts [3] = test: TGF-β-mediated differentiation of human lung fibroblasts, PF-543; assay type: cell-based
Excerpt: TGF-β-induced fibroblast differentiation was characterized to analyze the expression of fibronectin and α-SMA. […] Additionally, compared with the control mouse lung fibroblast (from wild-type mice), TGF-β-induced fibroblast differentiation and expression of YAP1 were dramatically lower in the lung fibroblast isolated from SphK1^−/− mice. Accordingly, selective inhibition of SphK1 is useful in the prevention and treatment of bleomycin-induced pulmonary fibrosis.

[4] = tested on: adult mice exposed to oxygen (75%); test: Hyperoxia-induced lung injury in adult mice; assay type: in vivo; details: 5 mg/kg/d PF-543 x 2 days prior to oxygen (75%)
[5] = tested on: newborn mice exposed to hyperoxia (75%); test: Hyperoxia-induced lung injury in newborn mice; assay type: in vivo; details: PF-543 20 mg/kg/day
Excerpt: Therefore, PF-543 protected the lungs of the newborn mice from oxygen injury.

HLMVECs = test: Hyperoxia-induced S1P generation, p47phox activation and ROS generation in HLMVECs, PF-543; assay type: cell-based, human
Excerpt: HLMVECs were transfected with p47-roGFP prior to exposure to hyperoxia.

S1P receptors = details: cited from earlier work
[6] = cited from earlier work
rats exposed to hypoxia = details: SKI-II 10 mg/kg intraperitoneally, once every other day for 3.5 weeks; vs vehicle; cited from earlier work
[7] = tested on: human lung microvascular endothelial cells (HLMVECs); details: SKI-II, cited from earlier work
[8] = tested on: bleomycin-challenged mice; details: SKI-II eight days post-bleomycin challenge; cited from earlier work
human lung fibroblasts [9] = details: SKI-II; cited from earlier work
irradiated C57B1/6 mice = details: 20 Gy thoracic irradiation, cited from earlier work
[10] = PF-543 1-5 μM, 1 hour pretreatment, TGF-β 5 ng/ml, 48 hours
[11] = 0.375 mg/kg myriocin p.o. 3x/week, 0.375 mg/kg

Sequence of sphingosine kinase-1/SphK1 (Q9NYA1 whole entry): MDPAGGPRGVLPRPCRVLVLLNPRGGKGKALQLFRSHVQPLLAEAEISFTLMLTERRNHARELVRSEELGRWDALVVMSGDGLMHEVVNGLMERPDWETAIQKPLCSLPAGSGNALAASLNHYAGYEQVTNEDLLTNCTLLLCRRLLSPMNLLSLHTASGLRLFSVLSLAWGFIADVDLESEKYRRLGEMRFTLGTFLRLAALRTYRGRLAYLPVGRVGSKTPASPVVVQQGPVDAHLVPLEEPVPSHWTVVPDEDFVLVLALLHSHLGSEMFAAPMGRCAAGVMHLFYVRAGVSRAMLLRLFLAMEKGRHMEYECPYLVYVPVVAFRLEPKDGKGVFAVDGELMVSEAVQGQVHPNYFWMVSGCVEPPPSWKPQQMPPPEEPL

CCCCCCCCCCCCc1ccc(C(=O)NC2(C(=N)N)CC2)cc1 [Compound 1]
selectivity for SphK1 over SphK2 [1]: 5 fold

CCCCCCCCCCCCc1ccc(NC(=O)C2(C(=N)N)CC2)cc1 [Compound 2]
Ki [1]: 0.3 µM
selectivity for SphK1 over SphK2 [1]: 40 fold

N=C(N)C1(C(=O)NCCCCCCCCCCOCC2CCCCC2)CC1 [Compound 4]
selectivity for SphK1 over SphK2 [1]: 470 fold

N=C(N)[C@@H]1CCCN1C(=O)c1ccc(-c2nc(-c3cccc(CCC4CCCCC4)c3)co2)cc1 [Compound 5]
selectivity for SphK1 over SphK2 [1]: 180 fold

CCCCCCCCCCCCCCC[C@@H](O)C(C)N (stereo partly shown) [Compound 55-21]
IC50 [1]: 7.1 µM
selectivity for SphK1 over SphK2 [1]: ~108 fold

Cc1cc(CS(=O)(=O)c2ccccc2)cc(OCc2ccc(CN3CCC[C@@H]3CO)cc2)c1 [PF-543, [(2R)-1-[[4-[[3-(benzenesulfonylmethyl)-5-methylphenoxy]methyl]phenyl]methyl]pyrrolidin-2-yl] methanol]
protection against lung injury and pulmonary fibrosis ([2]; 1.5 U/kg bleomycin, day 7 to 21 post-bleomycin, 5 mg/kg): ameliorates; also recorded: partly protected
TGF-β levels in bronchoalveolar lavage (BAL) fluids ([2]; day 7 to 21 post-bleomycin): decreased
expression of α-SMA and fibronectin in lung tissues ([2]; day 7 to 21 post-bleomycin): decreased
total collagen deposition ([2]; day 7 to 21 post-bleomycin, vs bleomycin without PF-543): decreased
Ashcroft's score ([2]; day 21 to 42 post-bleomycin): decrease
collagen deposition ([2]; day 21 to 42 post-bleomycin): decrease
resolution of pulmonary fibrosis ([2]; day 21 to 42 post-bleomycin): enhanced resolution
TGF-β-induced expression of fibronectin and α-SMA (human lung fibroblasts [3]; [10]): decreased; also recorded: dramatically inhibited
TGF-β-mediated fibroblast differentiation to myofibroblasts (human lung fibroblasts [3]; [10]): attenuated; also recorded: dramatically inhibited
TGF-β-induced expression of YAP1 (human lung fibroblasts [3]; PF-543 pretreatment, TGF-β): attenuated; also recorded: dramatically inhibited
BAL fluid total protein concentration [4]: decreases; also recorded: reduced
BAL inflammatory cell infiltrate (WBC count) [4]: decreases; also recorded: reduced
hyperoxia-induced lung injury [4]: attenuated
lung inflammatory fluid infiltration (lung histology) [4]: reduced
lung structure [5]: well preserved
attenuation of hyperoxia-mediated [32P]S1P generation (HLMVECs): > 80%
hyperoxia-induced ROS generation (HLMVECs): attenuates; also recorded: inhibited
exogenous S1P-mediated translocation of p47phox to cell periphery / activation (HLMVECs; exogenous S1P instead of hyperoxia): not affected; also recorded: did not affect
hyperoxia-induced aggregation and stimulation of p47phox biosensor protein (p47-roGFP) (HLMVECs; live cell imaging, HLMVECs transfected with p47-roGFP): suppressed
hyperoxia-induced p47phox translocation to cell periphery / activation of p47phox (HLMVECs; pre-treated with PF-543): inhibited; also recorded: attenuated
affinity toward S1P receptors (S1P receptors): does not exhibit any affinity
cell permeability [6]: cell-permeable

CCCCCCCCCCCCCC#CC(=O)C1COC(C)(C)N1C(=O)OC(C)(C)C (stereo not shown) [SKI 5C]
IC50 [1]: 3.3 µM

Oc1ccc(Nc2nc(-c3ccc(Cl)cc3)cs2)cc1 [SKI-II, 4-[[4-(4-chlorophenyl)-2-thiazolyl]amino]-phenol]
development of HPH (RVSP, RVH, pulmonary vascular remodeling) (rats exposed to hypoxia): prevents
ROS production under hyperoxia (DCFDA fluorescence) ([7]; 24 hours before hyperoxia (95% O2) for 3 hours): blocked
hyperoxia-induced S1P generation [7]: attenuates
bleomycin-induced mortality [8]: reduces
bleomycin-induced pulmonary fibrosis [8]: reduces
S1P generation and TGF-β-mediated signal transduction (human lung fibroblasts [9]): attenuates

CCCCCCC(=O)CCCCCC/C=C/C[C@@H](O)[C@H](O)[C@@](N)(CO)C(=O)O [myriocin]
radiation-induced pulmonary fibrosis (onset of RIF) (irradiated C57B1/6 mice; [11]): decreases; also recorded: delays
radiation-induced pulmonary inflammation (irradiated C57B1/6 mice; [11]): decreases; also recorded: reduces
animal lifespan (survival) (irradiated C57B1/6 mice; 0.375 mg/kg myriocin p.o. 3x/week): increased
SphK2 mRNA levels and protein expression (irradiated C57B1/6 mice; myriocin): Neither parameter is affected
expression of markers of fibrogenesis (collagen, α-SMA) in the lung (irradiated C57B1/6 mice; myriocin): decreased
radiation-increased SphK1 mRNA levels and SphK1 protein expression (irradiated C57B1/6 mice; myriocin): decreased
radiation-induced increase in total SphK activity in lung tissue (irradiated C57B1/6 mice; myriocin): hinder; also recorded: inhibition
